Assay results published in US9833497B2, “Human originated EGF domain proteins and use of the same” (CHENGDU SOURCEBIO LIMITED-LIABILITY COMPANY, priority 2013, dated 2017).

Assays:
Assay type in all cases: cell-based
Proteus vulgaris = assay: MIC against Gram-negative bacteria: Proteus vulgaris; conditions: for MIC (μg/mL) P. vulgaris / MIC P. vulgaris: 5×10^5 CFU/mL
In short: (§1)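 Bacteria grown in LB at 37° C with shaking to McFarland 0.5, pelleted and resuspended in fresh LB, then seeded at 5×10^5 CFU/mL per well. Purified recombinant human EGF domain proteins were two-fold serially diluted in triplicate and plates shaken at 37° C, 175 rpm. MIC is the lowest protein concentration with no bacterial growth.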

Citrobacter diversus = assay: MIC against Gram-negative bacteria: Citrobacter diversus; conditions: for MIC (μg/mL) C. diversus / MIC C. diversus: 5×10^5 CFU/mL
In short: as §1

E. coli DH5α = assay: Antibacterial activity: MIC and growth curve against E. coli DH5α in 96-well plate; conditions: minimal inhibitory concentration against E. coli DH5α; 96-well plate, 5×10^5 CFU/mL, 37° C., judged after 8 h
In short: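 Log-phase bacteria (OD600 ~0.5) resuspended in LB at 5×10^5 CFU/mL, exposed to recombinant protein at 50, 25, 12.5 μg/mL final in triplicate, 37 °C shaking at 175 rpm. OD600 read every 30 min; MIC is lowest concentration showing no growth.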

Pseudomonas aeruginosa = assay: MIC against Gram-negative bacteria: Pseudomonas aeruginosa; conditions: for MIC (μg/mL) P. aeruginosa / MIC P. aeruginosa: 5×10^5 CFU/mL
In short: as §1

E. coli BL21 = assay: MIC against Gram-negative bacteria: E. coli BL21; conditions: for MIC (μg/mL) E. coli BL21 / MIC E. coli BL21: 5×10^5 CFU/mL
In short: as §1

Enterobacter cloacae = assay: MIC against Gram-negative bacteria: Enterobacter cloacae; conditions: for MIC (μg/mL) E. cloacae / MIC E. cloacae: 5×10^5 CFU/mL
In short: as §1

Serratia marcescens = assay: MIC against Gram-negative bacteria: Serratia marcescens; conditions: for MIC (μg/mL) S. marcescens / MIC S. marcescens: 5×10^5 CFU/mL
In short: as §1

Klebsiella pneumonia = assay: MIC against Gram-negative bacteria: Klebsiella pneumonia; conditions: for MIC (μg/mL) K. pneumonia / MIC K. pneumonia: 5×10^5 CFU/mL
In short: as §1

Proteus mirabilis = assay: MIC against Gram-negative bacteria: Proteus mirabilis; conditions: for MIC (μg/mL) P. mirabilis / MIC P. mirabilis: 5×10^5 CFU/mL
In short: as §1

Aeromonas hydrophila = assay: MIC against Gram-negative bacteria: Aeromonas hydrophila; conditions: for MIC (μg/mL) A. hydrophila / MIC A. hydrophila: 5×10^5 CFU/mL
In short: as §1

Moraxella catarrhalis = assay: MIC against Gram-negative bacteria: Moraxella catarrhalis; conditions: for MIC (μg/mL) M. catarrhalis / MIC M. catarrhalis: 5×10^5 CFU/mL
In short: as §1

[1] = P. vulgaris, 10 h cultivation at 37° C.
[2] = C. diversus, 10 h cultivation at 37° C.
[3] = P. aeruginosa, 10 h cultivation at 37° C.
[4] = E. coli BL21, 10 h cultivation at 37° C.
[5] = E. cloacae, 10 h cultivation at 37° C.
[6] = S. marcescens, 10 h cultivation at 37° C.
[7] = K. pneumonia, 10 h cultivation at 37° C.
[8] = P. mirabilis, 10 h cultivation at 37° C.
[9] = A. hydrophila, 10 h cultivation at 37° C.
[10] = M. catarrhalis, 10 h cultivation at 37° C.
[11] = 10 h cultivation at 37° C., two-fold serial dilution

PRT836 (FGHDCSLTCDDCRNGGTCLLGLDGCDCPEGWTGLICN; listed as Homo sapiens)
12.5 µg/mL: MIC (μg/mL) E. coli BL21 (E. coli BL21; [4]) | MIC (μg/mL) S. marcescens (Serratia marcescens; [6]) | MIC (μg/mL) K. pneumonia (Klebsiella pneumonia; [7]) | MIC (μg/mL) A. hydrophila (Aeromonas hydrophila; [9]) | MIC (μg/mL) M. catarrhalis (Moraxella catarrhalis; [10])
50 µg/mL: MIC (E. coli DH5α) | MIC (μg/mL) P. aeruginosa (Pseudomonas aeruginosa; [3]) | MIC (μg/mL) E. cloacae (Enterobacter cloacae; [5])
25 µg/mL: MIC (μg/mL) P. vulgaris (Proteus vulgaris; [1]) | MIC (μg/mL) C. diversus (Citrobacter diversus; [2]) | MIC (μg/mL) P. mirabilis (Proteus mirabilis; [8])

PRT997 (EVDECLSDPCPVGASCLDLPGAFFCLCPSGFTGQLCE; listed as Homo sapiens)
25 µg/mL: MIC (Serratia marcescens; [6]) | MIC (Proteus mirabilis; [8])
50 µg/mL: MIC (Proteus vulgaris; [1]) | MIC (Citrobacter diversus; [2]) | MIC (Enterobacter cloacae; [5])
12.5 µg/mL: MIC (E. coli DH5α) | MIC (Pseudomonas aeruginosa; [3]) | MIC (E. coli BL21; [4]) | MIC (Klebsiella pneumonia; [7]) | MIC (Aeromonas hydrophila; [9]) | MIC (Moraxella catarrhalis; [10])

PRT1080 (IQSYCAKHLKCSQKCDQNKFSVKCSCYEGWVLEPDGESCR; listed as Homo sapiens)
25 µg/mL: MIC P. vulgaris (Proteus vulgaris; [11]) | MIC E. coli BL21 (E. coli BL21; [11]) | MIC K. pneumonia (Klebsiella pneumonia; [11])
12.5 µg/mL: MIC C. diversus (Citrobacter diversus; [11]) | MIC P. aeruginosa (Pseudomonas aeruginosa; [11]) | MIC P. mirabilis (Proteus mirabilis; [11]) | MIC A. hydrophila (Aeromonas hydrophila; [11]) | MIC M. catarrhalis (Moraxella catarrhalis; [11])
50 µg/mL: MIC (E. coli DH5α) | MIC E. cloacae (Enterobacter cloacae; [11]) | MIC S. marcescens (Serratia marcescens; [11])

PRT828 (HGAGCQGLCWCQHGAPCDPISGRCLCPAGFHGHFCE; listed as Homo sapiens)
25 µg/mL: MIC (μg/mL) S. marcescens (Serratia marcescens; [6]) | MIC (μg/mL) P. mirabilis (Proteus mirabilis; [8])
50 µg/mL: MIC (μg/mL) E. coli BL21 (E. coli BL21; [4]) | MIC (μg/mL) K. pneumonia (Klebsiella pneumonia; [7]) | MIC (μg/mL) A. hydrophila (Aeromonas hydrophila; [9]) | MIC (μg/mL) M. catarrhalis (Moraxella catarrhalis; [10])
12.5 µg/mL: MIC (μg/mL) P. vulgaris (Proteus vulgaris; [1]) | MIC (μg/mL) C. diversus (Citrobacter diversus; [2]) | MIC (E. coli DH5α) | MIC (μg/mL) P. aeruginosa (Pseudomonas aeruginosa; [3]) | MIC (μg/mL) E. cloacae (Enterobacter cloacae; [5])

PRT677 (ETDECRLNQNICGHGECVPGPPDYSCHCNPGYRSHPQHRYCV; listed as Homo sapiens)
50 µg/mL: MIC (E. coli DH5α) | MIC S. marcescens (Serratia marcescens; 96-well plate, 37° C., 10 h) | MIC K. pneumonia (Klebsiella pneumonia; 96-well plate, 37° C., 10 h) | MIC P. mirabilis (Proteus mirabilis; 96-well plate, 37° C., 10 h)
12.5 µg/mL: MIC P. vulgaris (Proteus vulgaris; 96-well plate, 37° C., 10 h) | MIC P. aeruginosa (Pseudomonas aeruginosa; 96-well plate, 37° C., 10 h) | MIC A. hydrophila (Aeromonas hydrophila; 96-well plate, 37° C., 10 h)
25 µg/mL: MIC C. diversus (Citrobacter diversus; 96-well plate, 37° C., 10 h) | MIC E. coli BL21 (E. coli BL21; 96-well plate, 37° C., 10 h) | MIC E. cloacae (Enterobacter cloacae; 96-well plate, 37° C., 10 h) | MIC M. catarrhalis (Moraxella catarrhalis; 96-well plate, 37° C., 10 h)
